In patent US20130165396A1, “Apple Skin Extracts for Treating Cardiovascular Disease” (NATIONAL RESEARCH COUNCIL OF CANADA, priority 2010, published 2013):
Marks after values point to notes of the source that are not given here.

Columns and labels:
Format in all cases: biochemical
[1] = test system: LDL isolated from human plasma; test: TBARS assay, AAPH-induced LDL oxidation
Method: (§1) To remove the inherent antioxidants, purchased LDL was dialyzed using Fisherbrand cellulose dialysis tubing (type T3 membrane, Thermo Fisher Scientific Inc., Ottawa, ON, Canada) against PBS containing 0.138 M NaCl and 0.0027 M KCl (pH 7.4, at 25° C.) at 4° C. for 24 hours. The buffer was changed every six hours. The dialyzed LDL was immediately used or stored at −80° C. in the dark under nitrogen and used within two to three weeks. Protein content of the dialyzed LDL was measured by the Lowry's method (Lowry et al., J. Biol. Chem., 1951, 193: […]) using bovine serum albumin as the standard.
(§2) Two oxidation induction methods were used: copper sulfate and 2,2′-azobis(2-methylpropionamidine)dihydrochloride (AAPH). For both induction systems, 100 μg/mL of final LDL protein concentration was used. LDL was oxidized at the presence of 10 μM final concentration of Cu^2+and 5 mM final concentration of AAPH separately at 37° C. for 4 h in the dark. […] Oxidation was terminated by adding a 1:1 mixture of 1 mM solution of ethylenediaminetetraacetic acid (EDTA) and 1 mM solution of butylated hydroxytoluene (BHT).
(§3) Two main constituents of TAE and oleanolic acid, which is an isomer of ursolic acid, were also used to investigate the concentration-responsiveness. The same concentrations of Cu^2+ and AAPH were used and the oxidation was terminated by a 1:1 mixture of EDTA and BHT as explained earlier under this section.
(§4) TBARS were measured according to the method of Xu et al., J. Food Sci., 2007, 72: S522-S527 with slight modifications. […] The mixture was incubated at 95° C. for 30 min to develop a pink chromogen. After cooling to room temperature tubes were centrifuged at 1500 g for 15 min and the fluorescence was measured using the FLUOstar OPTIMA plate reader (BMG Labtech Inc. Canada). Excitation and emission wavelengths used were 532 and 590 nm, respectively. TBARS activity was expressed as the percent inhibition (Equation 1) of LDL oxidation with comparison to the positive control, where F is fluorescence:
(§5) Percent inhibition (%)=100(Fpositive control−Fsample)/(Fpositive control) (1)

[2] = test system: LDL isolated from human plasma; test: TBARS assay, Cu2+-induced LDL oxidation
Method: as §1, §2, §3, §4, §5

[3] = test system: LDL isolated from human plasma; test: In vitro LDL oxidation inhibition, statements covering both induction systems or both product types; conditions: for Pro-oxidant effect (statement): 5-50 mg L^−1
Method: as §2, §3
TBARS were measured according to the method of Xu et al., J. Food Sci., 2007, 72: S522-S527 with slight modifications. […]. The mixture was incubated at 95° C. for 30 min to develop a pink chromogen. After cooling to room temperature tubes were centrifuged at 1500 g for 15 min and the fluorescence was measured using the FLUOstar OPTIMA plate reader (BMG Labtech Inc. Canada). Excitation and emission wavelengths used were 532 and 590 nm, respectively. TBARS activity was expressed as the percent inhibition (Equation 1) of LDL oxidation with comparison to the positive control, where F is fluorescence:
The formation of hydroperoxides was measured by the lipid compatible formulation of the Peroxoquant™ quantitative peroxide assay kit. LDL oxidation was induced by Cu^2+ or AAPH and incubated for 4 hrs at 37° C. in the dark. Hydroperoxides were measured following the manufacturer's instructions. Absorbance was measured at 595 nm using FLUOstar OPTIMA plate reader (BMG Labtech, Durham, N.C., USA). Activity of hydroperoxides was expressed as the percent inhibition of LDL with comparison to the positive control (Equation 1).

[4] = 50 mg L^−1, comparison of constituent compounds and metabolites (Table 4)

Structure (SMILES) | Percent inhibition of secondary LDL oxidation products, AAPH induction ([1]; 0.0005 mg L^−1) | Percent inhibition of secondary LDL oxidation products, AAPH induction ([1]; 0.001 mg L^−1) | Percent inhibition of secondary LDL oxidation products, AAPH induction ([1]; 0.005 mg L^−1) | Percent inhibition of secondary LDL oxidation products, AAPH induction ([1]; 0.01 mg L^−1) | Percent inhibition of secondary LDL oxidation products, AAPH induction ([1]; 0.5 mg L^−1) | Percent inhibition of secondary LDL oxidation products, AAPH induction ([1]; 1 mg L^−1) | Percent inhibition of secondary LDL oxidation products, AAPH induction ([1]; 5 mg L^−1) | Percent inhibition of secondary LDL oxidation products, AAPH induction ([1]; 10 mg L^−1) | Percent inhibition of secondary LDL oxidation products, AAPH induction ([1]; 25 mg L^−1) | Percent inhibition of secondary LDL oxidation products, AAPH induction ([1]; 50 mg L^−1) | Percent inhibition of secondary LDL oxidation products, AAPH induction [1, 4] | Percent inhibition of secondary LDL oxidation products, Cu induction ([2]; 0.0005 mg L^−1) | Percent inhibition of secondary LDL oxidation products, Cu induction ([2]; 0.001 mg L^−1) | Percent inhibition of secondary LDL oxidation products, Cu induction ([2]; 0.005 mg L^−1) | Percent inhibition of secondary LDL oxidation products, Cu induction ([2]; 0.01 mg L^−1) | Percent inhibition of secondary LDL oxidation products, Cu induction ([2]; 0.5 mg L^−1) | Percent inhibition of secondary LDL oxidation products, Cu induction ([2]; 1 mg L^−1) | Percent inhibition of secondary LDL oxidation products, Cu induction ([2]; 5 mg L^−1) | Percent inhibition of secondary LDL oxidation products, Cu induction ([2]; 10 mg L^−1) | Percent inhibition of secondary LDL oxidation products, Cu induction ([2]; 25 mg L^−1) | also measured
O=C(O)[C@H]1O[C@@H](Oc2c(-c3ccc(O)c(O)c3)oc3cc(O)cc(O)c3c2=O)[C@H](O)[C@@H](O)[C@@H]1O [Quercetin-3-glucuronic acid] | 11.79 ± 2.10^f % | 26.29 ± 1.68^d % | 24.12 ± 1.53^de % | −1.96 ± 3.37^g % | 4.32 ± 1.18^fg % | 13.31 ± 1.79^ef % | 55.17 ± 0.33^c % | 80.74 ± 3.27^a % | 66.69 ± 2.41^b % | 72.00 ± 0.97^ab % | 74.24 ± 1.36^d % | 10.73 ± 1.68^e % | 23.06 ± 2.97^d % | 15.68 ± 2.22^e % | 14.85 ± 0.80^e % | 71.09 ± 1.34^c % | 88.59 ± 0.21^b % | 90.37 ± 2.31^b % | 94.2 ± 31.32^ab % | 95.24 ± 0.71^ab % | Percent inhibition of secondary LDL oxidation products, Cu induction ([2]; 50 mg L^−1): 98.64 ± 0.47^a %; Percent inhibition of secondary LDL oxidation products, Cu induction [2, 4]: 49.40 ± 2.04^d %; Protection against LDL oxidation, quercetin metabolites (statement) ([3]; 50 mg L^−1): best protection; Pro-oxidant effect (statement) [3]: did not show any pro-oxidant effect
O=c1c(O[C@@H]2O[C@H](CO)[C@H](O)[C@H](O)[C@H]2O)c(-c2ccc(O)c(O)c2)oc2cc(O)cc(O)c12 [Quercetin-3-O-galactoside] | −29.51 ± 2.43^c % | −64.01 ± 6.16^c % | −35.63 ± 5.21^c % | −34.82 ± 4.98^c % | 37.82 ± 7.30^b % | 49.08 ± 3.10^b % | 88.62 ± 2.58^a % | 86.65 ± 1.82^a % | 85.58 ± 2.24^a % | 92.23 ± 1.87^a % | 141.68 ± 1.43^a % | 6.39 ± 2.33^c % | 4.88 ± 0.76^c % | 4.64 ± 1.50^c % | −6.51 ± 2.90^d % | 6.20 ± 1.77^c % | 27.61 ± 0.58^b % | 87.87 ± 0.32^a % | 89.88 ± 0.50^a % | 91.49 ± 0.88^a % | Percent inhibition of secondary LDL oxidation products, Cu induction ([2]; 50 mg L^−1): 92.73 ± 0.56^a %; Percent inhibition of secondary LDL oxidation products, Cu induction [2, 4]: 105.34 ± 0.30^ab %; Pro-oxidant effect (statement) [3]: did not show any pro-oxidant effect; LDL oxidation inhibition for both the induction systems ([3]; concentrations greater than 5 mg L^−1): more than 85%
